Consider 9 compounds from PubChem BioAssay (NCI).

Some test systems named below: OVCAR-3 ovarian; LOX IMVI melanoma; MALME-3M melanoma; A498 renal; SK-OV-3 ovarian; PC-3 prostate; SNB-75 CNS; MDA-MB-435; SF-295 CNS; HT29 colon.
What all share (assay): inhibition of tumour cell growth, NCI panel, 48 h

Several values for one entry are separate records, joined by “and”; a condition that tells them apart may be missing. Equal values may be shown once.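 Growth conditions: 96-well plates. Treatment: test compound, 48 hours, 5 concentrations. Analysis: linear interpolation between bracketing concentrations; unreached endpoints set to highest concentration. The concentration for 50% growth inhibition is given as GI50. TGI: concentration producing complete growth inhibition.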

As to `Oc1ccc(CCCCCCc2ccc(O)cc2)cc1`, the GI50 with OVCAR-3 ovarian was 6.02 µM; in the assay on LOX IMVI melanoma, 1.5 µM; in the assay on MALME-3M melanoma it was 13.3 µM; in the assay with A498 renal, 11.4 µM; in the assay on SK-OV-3 ovarian, 11.8 µM; with PC-3 prostate, 9.87 µM. Moreover, the GI50 in the assay with SNB-75 CNS is 11.6 µM; in the assay with MDA-MB-435 it was 11.8 µM; in the assay on SF-295 CNS, 3.18 µM; in the assay on HT29 colon, 17 µM. Moreover, the TGI is 17.8 µM in the assay with OVCAR-3 ovarian; 17.9 µM in the assay with LOX IMVI melanoma; 29.6 µM with MALME-3M melanoma; 23.5 µM in the assay with A498 renal; 34.1 µM with SK-OV-3 ovarian; 27.5 µM in the assay with PC-3 prostate. For the same compound, the TGI was 35.3 µM in the assay with SNB-75 CNS, 26.9 µM in the assay with MDA-MB-435, 15.5 µM in the assay with SF-295 CNS and 34.5 µM in the assay on HT29 colon.
On to `CN(CCOc1ccc(C#N)cc1)CCOc1ccc(C#N)cc1`, for which the GI50 with OVCAR-3 ovarian was 29.8 µM; in the assay on LOX IMVI melanoma, > 100 µM; in the assay with MALME-3M melanoma, > 100 µM; with A498 renal, 14.8 µM; with SK-OV-3 ovarian, > 100 µM; in the assay with PC-3 prostate, 41.6 µM. The GI50 in the assay on SNB-75 CNS is > 100 µM; in the assay with MDA-MB-435 it was 78.8 µM; with SF-295 CNS it was 17.3 µM; with HT29 colon, > 100 µM. Moreover, the TGI in the assay with OVCAR-3 ovarian, with LOX IMVI melanoma, with MALME-3M melanoma, in the assay with A498 renal, in the assay on SK-OV-3 ovarian and in the assay with PC-3 prostate was > 100 µM each time. The TGI in the assay with SNB-75 CNS, in the assay with MDA-MB-435, in the assay with SF-295 CNS and with HT29 colon was > 100 µM throughout.
With `CCCCn1cnc2c(SC)ncnc21`, the TGI in the assay on OVCAR-3 ovarian, in the assay with LOX IMVI melanoma, with MALME-3M melanoma, with A498 renal, with SK-OV-3 ovarian and in the assay on PC-3 prostate was > 100 µM in each case. The TGI in the assay with SNB-75 CNS, in the assay with MDA-MB-435, with SF-295 CNS and in the assay with HT29 colon was > 100 µM in each case.
In the case of `Cc1cc(C(C#N)c2ccc(Cl)cc2)c(Cl)cc1NC(=O)c1cc(I)cc(I)c1O` (configuration not stated), the GI50 in the assay with OVCAR-3 ovarian is 8.33 µM and 14.2 µM; in the assay on LOX IMVI melanoma, 10.4 µM and 16.7 µM; with MALME-3M melanoma, 4.93 µM and 10.4 µM; with A498 renal it was 11.2 µM; with SK-OV-3 ovarian, 15.6 µM and 15.8 µM; with PC-3 prostate, 3.18 µM and 11.7 µM. Further, the GI50 with SNB-75 CNS is 12.3 µM and 6.96 µM; in the assay on MDA-MB-435 it was 12 µM and 18.8 µM; in the assay with SF-295 CNS, 3.22 µM and 10.9 µM; with HT29 colon, 7.23 µM and 18.6 µM. In addition, the TGI with OVCAR-3 ovarian is 23.5 µM and 28.5 µM; in the assay with LOX IMVI melanoma it was 26.1 µM and 35.5 µM; with MALME-3M melanoma, 20.2 µM and 27.5 µM; in the assay with A498 renal it was 29.9 µM; with SK-OV-3 ovarian, 29.2 µM and 29.5 µM; in the assay with PC-3 prostate, 23 µM and 32.5 µM. For the same compound, the TGI is 41.5 µM and 25.6 µM with SNB-75 CNS; 31.6 µM and 42 µM with MDA-MB-435; 14.7 µM and 30.1 µM in the assay on SF-295 CNS; 22.6 µM and 40.4 µM with HT29 colon.
Regarding `CCOc1ccc(NCc2cc(OC)c(OC)c(OC)c2)cc1`, the TGI in the assay on OVCAR-3 ovarian is 1.65 µM and 2.22 µM; with LOX IMVI melanoma, > 84 µM; with MALME-3M melanoma, > 100 µM; in the assay with A498 renal, > 48 µM and 59.5 µM; in the assay with SK-OV-3 ovarian, 22.8 µM and 24.8 µM; in the assay on PC-3 prostate it was > 100 µM. The TGI with SNB-75 CNS is > 100 µM; with MDA-MB-435, > 100 µM; in the assay on SF-295 CNS, 3.44 µM; in the assay with HT29 colon, 8.98 µM and 11.8 µM. Also, the GI50 in the assay on A498 renal is 1.05 µM and 4.61 µM; in the assay on MDA-MB-435, 0.0789 µM and 0.0919 µM.
In the case of `CC[C@H](CC#N)OC(=O)N[C@@H](C)c1cccc(NC(=O)Nc2ccc(-c3cnco3)c(OC)c2)c1`, the GI50 with OVCAR-3 ovarian is 0.0894 µM; in the assay on LOX IMVI melanoma, 0.0242 µM; in the assay on MALME-3M melanoma, 0.161 µM; with A498 renal it was 0.138 µM; with SK-OV-3 ovarian, 0.0722 µM; in the assay with PC-3 prostate, 0.0741 µM. Besides, the GI50 with SNB-75 CNS is 0.11 µM; with MDA-MB-435 it was 0.0498 µM; with SF-295 CNS, 0.0532 µM; with HT29 colon it was < 0.0199 µM. Besides, the TGI was 45 µM in the assay on OVCAR-3 ovarian; 24.8 µM in the assay on LOX IMVI melanoma; 31.2 µM in the assay with MALME-3M melanoma; 20.8 µM with A498 renal; > 63.8 µM in the assay with SK-OV-3 ovarian; 31.4 µM with PC-3 prostate. Also, the TGI was determined as 27.8 µM with SNB-75 CNS, 29 µM in the assay on MDA-MB-435, 13 µM in the assay on SF-295 CNS and 21.7 µM with HT29 colon.
For the compound `Clc1nc(Cl)c2ncn(Cc3ccc(COc4cccc(OCc5ccc(Cn6cnc7c(Cl)nc(Cl)nc76)cc5)c4)cc3)c2n1`, the GI50 was 10.7 µM in the assay on OVCAR-3 ovarian; 2.47 µM in the assay on LOX IMVI melanoma; 73.1 µM with MALME-3M melanoma; 39.2 µM with A498 renal; > 100 µM in the assay on SK-OV-3 ovarian; 24.1 µM in the assay with PC-3 prostate. Further, the GI50 with SNB-75 CNS was 8.39 µM; with MDA-MB-435, 26.7 µM; with SF-295 CNS it was 98.4 µM; with HT29 colon, > 100 µM. For the same compound, the TGI is 56.6 µM in the assay on OVCAR-3 ovarian; 12.7 µM in the assay on LOX IMVI melanoma; > 100 µM in the assay with MALME-3M melanoma; > 100 µM in the assay with A498 renal; > 100 µM in the assay on SK-OV-3 ovarian; > 100 µM in the assay with PC-3 prostate. The TGI in the assay with SNB-75 CNS, in the assay on MDA-MB-435, in the assay with SF-295 CNS and in the assay with HT29 colon was > 100 µM each time.
As to `OCCCCCCOc1ccc(-c2cc(-c3ccccn3)nc(-c3ccccn3)c2)cc1`, the TGI was 1.32 µM with OVCAR-3 ovarian; 1.02 µM in the assay with LOX IMVI melanoma; 9.38 µM with MALME-3M melanoma; 5.77 µM in the assay on A498 renal; 1.59 µM in the assay with SK-OV-3 ovarian; 5.31 µM in the assay with PC-3 prostate. Besides, the TGI in the assay with SNB-75 CNS was 3.11 µM; in the assay with MDA-MB-435 it was > 100 µM; with SF-295 CNS it was 1.64 µM; with HT29 colon, 11.8 µM.
For the compound `CC12CCC(=O)C=C1CCC1C2C(O)CC2(C)C(c3csc(N)n3)CCC12` (configuration not stated), the TGI in the assay with OVCAR-3 ovarian, in the assay on LOX IMVI melanoma, in the assay with MALME-3M melanoma, in the assay with A498 renal, with SK-OV-3 ovarian and in the assay on PC-3 prostate was > 100 µM in each case. The TGI with SNB-75 CNS, in the assay with MDA-MB-435, in the assay with SF-295 CNS and with HT29 colon was > 100 µM in each case.
